Substitutions are numbered along the chain they refer to. Positions of bridges follow the written chain, without caps; N, C: chain ends. No end group written: not given here.
Assays:
[1] = test system: rASIC1a N291A; experiment: TEVC oocytes, rASIC1a N291A mutant; format: cell-based, rat; settings: concentration-response, conditioning pH 7.45, stimulating pH 6
Method: (§1) Two-electrode voltage-clamp (TEVC) experiments using Xenopus laevis oocytes were conducted as previously described. Briefly, oocytes were surgically removed from anaesthetised female frogs, then treated with collagenase (~ 1 mg/ml, Sigma type I) for 2 h under agitation at room temperature. cRNAs were synthesised using a mMessage mMachine T7 or SP6 transcription kit (Thermo Fisher Scientific Australia Pty Ltd, Scoresby, VIC, Australia) and injected into healthy stage V–VI oocytes at 0.2–20 ng per cell. […] Membrane currents were recorded 2–7 days after cRNA-injection under voltage-clamp at -60 mV (Axon Axoclamp 900 A, Molecular Devices, CA, USA) using two standard glass microelectrodes of 0.5–1 MΩ resistance when filled with 3 M KCl solution. […]
(§2) Specific to this work, the standard protocol was for oocytes to be conditioned at pH 7.45 and channels stimulated every 60 s using a 5 s pH 5 or 6 application, unless stated otherwise. […] Activation curves were determined by conditioning oocytes at pH 8 (Fig. 2e − g; and Fig. 5a and b) or 7.45 (Fig. 6; and Supplementary Fig. 2d and c) for 55 s and applying low pH stimuli from 7.25 to 5.0 for 5 s. Steady-state desensitisation (SSD) was determined by applying conditioning solutions of pH values from 8 to 6 for 115 s prior to stimulation by a pH drop to 5 for 5 s. […] Control pH-dependence curves were determined in the absence of any Ma-3. […]

[2] = target: T1, rASIC1b N324K (Rattus norvegicus, UniProt P55926, N291K); experiment: TEVC oocytes, rASIC1b N324K mutant; format: cell-based; settings: 300 nM Ma-3, conditioning pH 7.45; Hill fit, n = 5–6
T1 construct: expressed in transfected cells; host or cells: Xenopus laevis oocytes injected with cRNA
T1 sequence (P55926 1-559 isoform P55926-3 N324K): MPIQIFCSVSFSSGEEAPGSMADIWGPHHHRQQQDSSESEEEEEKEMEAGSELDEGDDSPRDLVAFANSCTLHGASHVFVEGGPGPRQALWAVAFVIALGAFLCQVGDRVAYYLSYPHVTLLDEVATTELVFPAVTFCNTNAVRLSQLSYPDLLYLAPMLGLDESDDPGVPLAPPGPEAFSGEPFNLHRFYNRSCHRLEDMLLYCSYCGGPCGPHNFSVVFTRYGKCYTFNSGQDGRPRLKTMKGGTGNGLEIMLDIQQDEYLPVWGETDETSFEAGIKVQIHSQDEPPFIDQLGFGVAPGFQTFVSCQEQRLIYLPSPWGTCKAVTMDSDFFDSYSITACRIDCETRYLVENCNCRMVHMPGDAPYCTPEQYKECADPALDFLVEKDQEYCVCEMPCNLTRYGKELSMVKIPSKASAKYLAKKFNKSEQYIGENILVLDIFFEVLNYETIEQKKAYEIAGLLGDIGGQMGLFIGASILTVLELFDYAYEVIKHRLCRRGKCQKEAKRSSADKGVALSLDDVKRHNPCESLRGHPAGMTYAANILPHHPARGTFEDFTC
Method: as §1, §2

[3] = target: T2, rASIC1b C208Q (Rattus norvegicus, UniProt P55926, C208Q); experiment: TEVC oocytes, rASIC1b C208Q mutant; format: cell-based
T2 construct: expressed in transfected cells; host or cells: Xenopus laevis oocytes (cRNA injection)
T2 sequence (P55926 1-559 isoform P55926-3 C208Q): T1 sequence (P55926 1-559 isoform P55926-3 N324K) with C208Q, K324N
Method: as §1, §2

**Q.** Which results are given for “H-SLKCYQHGKVVTCHRDMKFCYHNIGMPFRNLKLILQGCSSSCSETENNKCCSTDRCNK (disulfide 4-20, 13-38, 42-50, 51-56 (inferred)) [Ma-3, mambalgin-3]”?
**A.** effect of channel mutation on Ma-3 potency [1]: had no effect on potency; pH50 of activation in presence of Ma-3 [2]: 6.21; pH50 of activation in presence of Ma-3 ([3]; 300 nM Ma-3, conditioning pH 7.45, Hill fit, n = 5–6): 6.27; Hill slope (95% CI) ([3]; conditioning pH 7.45, pH 6 evoked currents, potentiation, 95% CI): 1.26–2.01

— paper PMC11335189, “Revealing molecular determinants governing mambalgin-3 pharmacology at acid-sensing ion channel 1 variants” (Cellular and Molecular Life Sciences: CMLS, 2024)
